# Molecular target: T1, human estrogen receptor (Homo sapiens, UniProt P03372)
# T1 construct: expressed in transfected cells; host or cells: HeLa cells
# T1 sequence (P03372 1-595): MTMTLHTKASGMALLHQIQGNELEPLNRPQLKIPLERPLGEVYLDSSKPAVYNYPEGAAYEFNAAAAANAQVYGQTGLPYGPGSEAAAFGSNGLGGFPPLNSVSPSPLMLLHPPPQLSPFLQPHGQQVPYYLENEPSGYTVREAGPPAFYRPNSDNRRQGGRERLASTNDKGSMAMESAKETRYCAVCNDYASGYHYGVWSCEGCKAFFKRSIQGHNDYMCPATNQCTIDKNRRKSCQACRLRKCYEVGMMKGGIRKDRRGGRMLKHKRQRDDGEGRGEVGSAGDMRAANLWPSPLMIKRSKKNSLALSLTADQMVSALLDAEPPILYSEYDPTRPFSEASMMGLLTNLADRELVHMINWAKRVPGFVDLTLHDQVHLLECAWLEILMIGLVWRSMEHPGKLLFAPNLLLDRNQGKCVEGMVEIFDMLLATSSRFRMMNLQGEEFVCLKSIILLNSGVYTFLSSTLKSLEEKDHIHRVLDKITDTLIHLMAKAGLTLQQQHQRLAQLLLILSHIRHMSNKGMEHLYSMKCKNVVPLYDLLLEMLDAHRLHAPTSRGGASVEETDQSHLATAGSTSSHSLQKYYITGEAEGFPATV
# Experiment: Transactivation assay in HeLa cells (antiestrogenic action, vit-TK-CAT reporter)
# Type: cell-based
# Conditions: in the presence of 0.1 nM estradiol, read-out: Antagonism IC50, HELA
smiles,measurement,value
C[C@]12C[C@H](c3ccc(OCCCCCS(=O)(=O)Cc4ccccn4)cc3)[C@@H]3c4ccc(O)cc4CC[C@H]3[C@]13CC[C@@]2(O)CC3 [Compound A],IC50,0.4 nM

# — patent US6229029A, “11β-aryl substituted 14,17-ethanoestratriens, method for the production of these compounds and their use in the production of medicaments” (Schering Aktiengesellschaft, priority 1997, dated 2001)
